From patent publication EP4678638A1, “NEW E3 UBIQUITIN LIGASE LIGAND, PROTEIN DEGRADATION AGENT AND USE THEREOF” (priority 2023, dated 2024)

molecular target: T1, FAK (Homo sapiens, UniProt Q05397); assay: Western blot degradation of FAK; assay type: cell-based; conditions: Table D7
T1 construct: evaluate the effects of the compounds of the present disclosure on the expression of target proteins in cells; endogenous in cells
Description: Conventional Western blot assay was performed to evaluate the effects of the compounds of the present disclosure on the expression of target proteins in cells.
(1) Cell Seeding and Protein Harvesting: The selected cells were processed according to the cell seeding procedure and protein harvesting procedure in Table III-2. Table III-2 Cell Seeding and Protein Harvesting Procedures
(2) To the collected supernatant, 5X SDS sample loading buffer was added, followed by denaturation at 95°C for 5 minutes. The denatured samples were then separated by SDS-PAGE electrophoresis on a polyacrylamide gel. Proteins were transferred to a nitrocellulose membrane (0.45 µm NC membrane), blocked with blocking buffer at room temperature for 1 hour, and subjected to antibody incubation and development procedures according to the antibody manufacturer's instructions (Cell Signaling Technology).
Half-Maximal Degradation Concentration value (the drug concentration required for degrading proteins by 50%, abbreviated as DC50) reads method: comparing the grayscale values of Western blot bands from drug-treated samples with those from blank DMSO-treated controls, and identifying the drug concentration range at which the grayscale value is half that of the DMSO-treated control bands.
DC50 values can be calculated using ImageJ software to measure grayscale values of Western blot bands from drug-treated samples. The concentration-response curve is fitted to estimate the drug concentration corresponding to half the grayscale value.
Target protein remaining (%) refers to the percentage of target protein remaining in hPBMC cells after treatment with protein degrader compounds.
Calculation method for target protein remaining (%): Use ImageJ software to measure grayscale values of Western blot bands from drug (protein degrader)-treated samples. The grayscale value of drug-treated bands is divided by that of internal control protein bands, and the resulting quotient is normalized to obtain the relative percentage of remaining target protein after protein degrader treatment.
Target protein degradation rate (%) = 100% - target protein remaining (%).

T1 sequence (Q05397 whole entry, species assumed): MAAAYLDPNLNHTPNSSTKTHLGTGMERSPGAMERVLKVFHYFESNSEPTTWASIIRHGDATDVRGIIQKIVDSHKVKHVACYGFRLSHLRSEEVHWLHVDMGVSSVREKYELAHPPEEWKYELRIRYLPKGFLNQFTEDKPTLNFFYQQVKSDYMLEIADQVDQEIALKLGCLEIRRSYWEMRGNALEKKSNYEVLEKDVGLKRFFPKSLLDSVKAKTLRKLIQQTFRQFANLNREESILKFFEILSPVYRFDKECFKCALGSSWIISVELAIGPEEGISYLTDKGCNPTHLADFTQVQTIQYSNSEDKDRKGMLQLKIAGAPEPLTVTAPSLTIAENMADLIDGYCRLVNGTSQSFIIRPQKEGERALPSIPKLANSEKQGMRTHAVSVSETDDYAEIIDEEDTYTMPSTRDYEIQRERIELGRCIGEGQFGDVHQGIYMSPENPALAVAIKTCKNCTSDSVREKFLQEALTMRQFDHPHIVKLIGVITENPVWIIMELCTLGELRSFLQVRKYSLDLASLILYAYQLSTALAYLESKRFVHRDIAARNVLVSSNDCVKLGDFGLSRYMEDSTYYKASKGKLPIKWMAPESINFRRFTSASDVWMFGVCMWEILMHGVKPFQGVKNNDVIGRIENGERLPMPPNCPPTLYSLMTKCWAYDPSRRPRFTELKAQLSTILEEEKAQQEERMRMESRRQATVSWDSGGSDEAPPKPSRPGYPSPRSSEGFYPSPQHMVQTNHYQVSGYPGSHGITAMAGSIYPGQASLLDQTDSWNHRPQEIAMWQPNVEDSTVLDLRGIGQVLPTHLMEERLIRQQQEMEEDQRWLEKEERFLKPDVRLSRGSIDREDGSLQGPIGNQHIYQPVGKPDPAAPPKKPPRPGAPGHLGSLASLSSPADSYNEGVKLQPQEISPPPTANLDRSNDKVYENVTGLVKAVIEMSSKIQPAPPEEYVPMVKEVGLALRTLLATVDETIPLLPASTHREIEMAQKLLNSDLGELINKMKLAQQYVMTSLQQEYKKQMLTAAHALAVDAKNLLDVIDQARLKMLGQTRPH

| SMILES | Degradation of substrate protein FAK (substrate protein remaining %) |
| --- | --- |
| CNC(=O)c1ccccc1Nc1cc(Nc2ccc(N3CCC(N(C)Cc4cccc(NC5CCC(=O)NC5=O)c4)CC3)cc2OC)ncc1C(F)(F)F (centres unmarked) [GT-07652, 2-((2-((4-(4-((3-((2,6-dioxopiperidin-3-yl)amino)benzyl)(methyl)amino)piperidin-1-yl)-2-methoxyphenyl)amino)-5-(trifluoromethyl)pyridin-4-yl)amino)-N-methylbenzamide] | A (A is defined as 0% ≤ substrate protein remaining % ≤ 80%) |
| CN(c1nccnc1CNc1nc(Nc2ccc(N3CCN(Cc4ccnc(C5CCC(=O)NC5=O)c4)CC3)cc2)ncc1C(F)(F)F)S(C)(=O)=O (centres unmarked) [GT-07507, N-(3-(((2-((4-(4-((2-(2,6-dioxopiperidin-3-yl)pyridin-4-yl)methyl)piperazin-1-yl)phenyl)amino)-5-(trifluoromethyl)pyrimidin-4-yl)amino)methyl)pyrazin-2-yl)-N-methylmethanesulfonamide] | A (A is defined as 0% ≤ substrate protein remaining % ≤ 80%) |
| CNC(=O)c1ccccc1Nc1cc(Nc2ccc(N3CCC(N(C)Cc4ccc(C5CCC(=O)NC5=O)nc4)CC3)cc2OC)ncc1C(F)(F)F (centres unmarked) [GT-07657, 2-((2-((4-(4-(((6-(2,6-dioxopiperidin-3-yl)pyridin-3-yl)methyl)(methyl)amino)piperidin-1-yl)-2-methoxyphenyl)amino)-5-(trifluoromethyl)pyridin-4-yl)amino)-N-methylbenzamide] | A (A is defined as 0% ≤ substrate protein remaining % ≤ 80%) |
| CN(c1nccnc1CNc1nc(Nc2ccc(N3CCN(Cc4ccnc(N5CCC(=O)NC5=O)c4)CC3)cc2)ncc1C(F)(F)F)S(C)(=O)=O [GT-07406, N-(3-(((2-((4-(4-((2-(2,4-dioxotetrahydropyrimidin-1(2H)-yl)pyridin-4-yl)methyl)piperazin-1-yl)phenyl)amino)-5-(trifluoromethyl)pyrimidin-4-yl)amino)methyl)pyrazin-2-yl)-N-methylmethanesulfonamide] | A (A is defined as 0% ≤ substrate protein remaining % ≤ 80%) |
| CN(c1nccnc1CNc1nc(Nc2ccc(N3CCN(Cc4cccc(N5CCC(=O)NC5=O)c4)CC3)cc2)ncc1C(F)(F)F)S(C)(=O)=O [GT-07401, N-(3-(((2-((4-(4-(3-(2,4-dioxotetrahydropyrimidin-1(2H)-yl)benzyl)piperazin-1-yl)phenyl)amino)-5-(trifluoromethyl)pyrimidin-4-yl)amino)methyl)pyrazin-2-yl)-N-methylmethanesulfonamide] | A (A is defined as 0% ≤ substrate protein remaining % ≤ 80%) |
| CN(c1nccnc1CNc1nc(Nc2ccc(N3CCN(Cc4cc(N5CCC(=O)NC5=O)ncc4F)CC3)cc2)ncc1C(F)(F)F)S(C)(=O)=O [GT-07405, N-(3-(((2-((4-(4-((2-(2,4-dioxotetrahydropyrimidin-1(2H)-yl)-5-fluoropyridin-4-yl)methyl)piperazin-1-yl)phenyl)amino)-5-(trifluoromethyl)pyrimidin-4-yl)amino)methyl)pyrazin-2-yl)-N-methylmethanesulfonamide] | A (A is defined as 0% ≤ substrate protein remaining % ≤ 80%) |
| CNC(=O)c1ccccc1Nc1cc(Nc2cc(C)c(C3CCN(Cc4cncc(N5CCC(=O)NC5=O)c4)CC3)cc2OC(C)C)ncc1C(F)(F)F [GT-07674, 2-((2-((4-(1-((5-(2,4-dioxotetrahydropyrimidin-1(2H)-yl)pyridin-3-yl)methyl)piperidin-4-yl)-2-isopropoxy-5-methylphenyl)amino)-5-(trifluoromethyl)pyridin-4-yl)amino)-N-methylbenzamide] | A (A is defined as 0% ≤ substrate protein remaining % ≤ 80%) |
| CS(=O)(=O)c1cccc(CNc2nc(Nc3ccc(N4CCN(Cc5ccc(C6CCC(=O)NC6=O)cn5)CC4)cc3)ncc2C(F)(F)F)c1 (centres unmarked) [GT-07466, 3-(6-((4-(4-((4-((3-(methylsulfonyl)benzyl)amino)-5-(trifluoromethyl)pyrimidin-2-yl)amino)phenyl)piperazin-1-yl)methyl)pyridin-3-yl)piperidine-2,6-dione] | A (A is defined as 0% ≤ substrate protein remaining % ≤ 80%) |
| CNC(=O)c1ccccc1Nc1cc(Nc2ccc(N3CCC(N(C)Cc4cccc(N5CCC(=O)NC5=O)c4)CC3)cc2OC)ncc1C(F)(F)F [GT-07650, 2-((2-((4-(4-((3-(2,4-dioxotetrahydropyrimidin-1(2H)-yl)benzyl)(methyl)amino)piperidin-1-yl)-2-methoxyphenyl)amino)-5-(trifluoromethyl)pyridin-4-yl)amino)-N-methylbenzamide] | A (A is defined as 0% ≤ substrate protein remaining % ≤ 80%) |
| CNC(=O)c1ccccc1Nc1cc(Nc2cc(C)c(C3CCN(Cc4ccc(C5CCC(=O)NC5=O)cc4)CC3)cc2OC(C)C)ncc1C(F)(F)F (centres unmarked) [GT-04084, 2-((2-((4-(1-(4-(2,6-dioxopiperidin-3-yl)benzyl)piperidin-4-yl)-2-isopropoxy-5-methylphenyl)amino)-5-(trifluoromethyl)pyridin-4-yl)amino)-N-methylbenzamide] | A (A is defined as 0% ≤ substrate protein remaining % ≤ 80%) |
| CS(=O)(=O)c1cccc(CNc2nc(Nc3ccc(N4CCN(Cc5cccc(N6CCC(=O)NC6=O)c5)CC4)cc3)ncc2C(F)(F)F)c1 [GT-04178, 1-(3-((4-(4-((4-((3-(methylsulfonyl)benzyl)amino)-5-(trifluoromethyl)pyrimidin-2-yl)amino)phenyl)piperazin-1-yl)methyl)phenyl)dihydropyr imidine-2,4(1H,3H)-dione] | A (A is defined as 0% ≤ substrate protein remaining % ≤ 80%) |
| CN(c1nccnc1CNc1nc(Nc2ccc(N3CCN(Cc4ccc(N5CCC(=O)NC5=O)cc4)CC3)cc2)ncc1C(F)(F)F)S(C)(=O)=O [GT-07400, N-(3-(((2-((4-(4-(4-(2,4-dioxotetrahydropyrimidin-1(2H)-yl)benzyl)piperazin-1-yl)phenyl)amino)-5-(trifluoromethyl)pyrimidin-4-yl)amino)methyl)pyrazin-2-yl)-N-methylmethanesulfonamide] | A (A is defined as 0% ≤ substrate protein remaining % ≤ 80%) |
| CNC(=O)c1ccccc1Nc1cc(Nc2ccc(N3CCC(N(C)Cc4ccc(C5CCC(=O)NC5=O)cn4)CC3)cc2OC)ncc1C(F)(F)F (centres unmarked) [GT-07658, 2-((2-((4-(4-(((5-(2,6-dioxopiperidin-3-yl)pyridin-2-yl)methyl)(methyl)amino)piperidin-1-yl)-2-methoxyphenyl)amino)-5-(trifluoromethyl)pyridin-4-yl)amino)-N-methylbenzamide] | A (A is defined as 0% ≤ substrate protein remaining % ≤ 80%) |
| CNC(=O)c1ccccc1Nc1cc(Nc2cc(C)c(C3CCN(Cc4ccc(N5CCC(=O)NC5=O)nc4)CC3)cc2OC(C)C)ncc1C(F)(F)F [GT-07670, 2-((2-((4-(1-((6-(2,4-dioxotetrahydropyrimidin-1(2H)-yl)pyridin-3-yl)methyl)piperidin-4-yl)-2-isopropoxy-5-methylphenyl)amino)-5-(trifluoromethyl)pyridin-4-yl)amino)-N-methylbenzamide] | A (A is defined as 0% ≤ substrate protein remaining % ≤ 80%) |
| CNC(=O)c1ccccc1Nc1cc(Nc2cc(C)c(C3CCN(Cc4cncc(C5CCC(=O)NC5=O)c4)CC3)cc2OC(C)C)ncc1C(F)(F)F (centres unmarked) [GT-07678, 2-((2-((4-(1-((5-(2,6-dioxopiperidin-3-yl)pyridin-3-yl)methyl)piperidin-4-yl)-2-isopropoxy-5-methylphenyl)amino)-5-(trifluoromethyl)pyridin-4-yl)amino)-N-methylbenzamide] | A (A is defined as 0% ≤ substrate protein remaining % ≤ 80%) |
| CS(=O)(=O)c1cccc(CNc2nc(Nc3ccc(N4CCN(Cc5ccnc(N6CCC(=O)NC6=O)c5)CC4)cc3)ncc2C(F)(F)F)c1 [GT-07462, 1-(4-((4-(4-((4-((3-(methylsulfonyl)benzyl)amino)-5-(trifluoromethyl)pyrimidin-2-yl)amino)phenyl)piperazin-1-yl)methyl)pyridin-2-yl)dihydropyrimidine-2,4(1H,3H)-dione] | A (A is defined as 0% ≤ substrate protein remaining % ≤ 80%) |
| CNC(=O)c1ccccc1Nc1cc(Nc2cc(C)c(N3CCN(Cc4ccc(C5CCC(=O)NC5=O)c(F)c4)CC3)cc2OC(C)C)ncc1C(F)(F)F (centres unmarked) [GT-03947, 2-((2-((4-(4-(4-(2,6-dioxopiperidin-3-yl)-3-fluorobenzyl)piperazin-1-yl)-2-isopropoxy-5-methylphenyl)amino)-5-(trifluoromethyl)pyridin-4-yl)amino)-N-methylbenzamide] | A (A is defined as 0% ≤ substrate protein remaining % ≤ 80%) |
